Laboratory results reported in patent US9266834B2, “1, 4-disubstituted 3-cyano-pyridone derivatives and their use as positive allosteric modulators of MGLUR2-receptors” (JANSSEN PHARMACEUTICALS, INC., priority 2006, dated 2016).

Each compound was assayed against T1, human mGluR2 receptor (Homo sapiens, UniProt Q14416) (assay: [35S]GTPγS binding assay (GTPγS-PAM): positive allosteric modulation in presence of glutamate at EC25, membranes from transfected CHO cells). Settings: in presence of mGluR2 agonist glutamate at predetermined EC25 concentration, averages of duplicate values of 11-concentration response curves.
T1 construct: expressed in transfected cells; host or cells: CHO cells (membrane preparation)
T1 sequence (Q14416 19-872): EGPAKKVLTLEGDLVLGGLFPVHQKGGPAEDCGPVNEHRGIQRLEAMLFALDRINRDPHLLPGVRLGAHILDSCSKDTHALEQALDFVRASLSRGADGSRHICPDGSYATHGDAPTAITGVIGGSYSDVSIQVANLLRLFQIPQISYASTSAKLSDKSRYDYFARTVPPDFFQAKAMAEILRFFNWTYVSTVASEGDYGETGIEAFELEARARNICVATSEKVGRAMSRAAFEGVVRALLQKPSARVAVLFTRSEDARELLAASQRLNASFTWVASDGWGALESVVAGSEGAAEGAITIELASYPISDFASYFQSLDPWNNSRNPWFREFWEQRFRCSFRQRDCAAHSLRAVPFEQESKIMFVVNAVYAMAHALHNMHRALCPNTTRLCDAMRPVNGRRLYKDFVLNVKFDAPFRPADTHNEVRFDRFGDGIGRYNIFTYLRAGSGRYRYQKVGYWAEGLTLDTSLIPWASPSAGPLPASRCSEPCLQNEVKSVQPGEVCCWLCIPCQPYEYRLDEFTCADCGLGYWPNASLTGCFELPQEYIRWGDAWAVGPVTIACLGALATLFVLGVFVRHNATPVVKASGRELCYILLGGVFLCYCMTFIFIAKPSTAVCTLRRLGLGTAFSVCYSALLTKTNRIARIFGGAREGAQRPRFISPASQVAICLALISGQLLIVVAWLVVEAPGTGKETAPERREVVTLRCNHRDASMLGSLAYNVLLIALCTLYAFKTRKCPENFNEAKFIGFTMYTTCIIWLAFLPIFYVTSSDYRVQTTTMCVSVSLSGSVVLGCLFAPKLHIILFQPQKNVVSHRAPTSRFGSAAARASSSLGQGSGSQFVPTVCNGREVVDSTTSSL
Type: biochemical
Text: The compounds provided in the present invention are positive allosteric modulators of mGluR2. These compounds appear to potentiate glutamate responses by binding to an allosteric site other than the glutamate binding site. The response of mGluR2 to a concentration of glutamate is increased when compounds of Formula (I) are present. Compounds of Formula (I) are expected to have their effect substantially at mGluR2 by virtue of their ability to enhance the function of the receptor. The behaviour of positive allosteric modulators tested at mGluR2 using the [^35S]GTPγS binding assay method described below and which is suitable for the identification of such compounds, and more particularly the compounds according to Formula (I), are shown in Table 4.
[^35S]GTPγS Binding Assay
The [^35S]GTPγS binding is a functional membrane-based assay used to study G-protein coupled receptor (GPCR) function whereby incorporation of a non-hydrolysable form of GTP, [^35S]GTPγS (guanosine 5′-triphosphate, labelled with […] ^35S), is measured. The G-protein o subunit catalyzes the exchange of guanosine 5′-diphosphate (GDP) by guanosine triphosphate (GTP) and on activation of the GPCR by an agonist, [^35S]GTPγS, becomes incorporated and cannot be cleaved to continue the exchange cycle (Harper (1998) Current Protocols in Pharmacology 2.6.1-10, John Wiley & Sons, Inc.). […] Here we describe the use of the [^35S]GTPγS binding assay using membranes from cells transfected with the human mGluR2 receptor and adapted from Schaffhauser et al ((2003) Molecular Pharmacology 4:798-810) for the detection of the positive allosteric modulation (PAM) properties of the compounds of this invention.
CHO-cells were cultured to pre-confluence and stimulated with 5 mM butyrate for 24 hours, prior to washing in PBS, and then collection by scraping in homogenisation buffer (50 mM Tris-HCl buffer, pH 7.4, 4° C.). Cell lysates were homogenized briefly (15 s) using an ultra-turrax homogenizer. The homogenate was centrifuged at 23 500×g for 10 minutes and the supernatant discarded. The pellet was resuspended in 5 mM Tris-HCl, pH 7.4 and centrifuged again (30 000×g, 20 min, 4° C.). The final pellet was resuspended in 50 mM HEPES, pH 7.4 and stored at −80° C. in appropriate aliquots before use. Protein concentration was determined by the Bradford method (Bio-Rad, USA) with bovine serum albumin as standard.
Measurement of mGluR2 positive allosteric modulators in membranes containing human mGluR2 was performed using frozen membranes that were thawed and briefly homogenised prior to pre-incubation in 96-well microplates (15 μg/assay well, 30 minutes, 30° C.) in assay buffer (50 mM HEPES pH 7.4, 100 mM NaCl, 3 mM MgCl2, 50 μM GDP, 10 μg/ml saponin,) with increasing concentrations of positive allosteric modulator (from 0.3 nM to 50 μM) and either a minimal pre-determined concentration of glutamate (PAM assay), or no added glutamate. For the PAM assay, membranes were pre-incubated with glutamate at EC25 concentration, i.e. a concentration that gives 25% of the maximal response glutamate, and is in accordance to published data (Pin et al. (1999) Eur. J. Pharmacol. 375:277-294). After addition of [^35S]GTPγS (0.1 nM, f.c.) to achieve a total reaction volume of 200 μl, microplates were shaken briefly and further incubated to allow [^35S]GTPγS incorporation on activation (30 minutes, 30° C.). The reaction was stopped by rapid vacuum filtration over glass-fibre filter plates (Unifilter 96-well GF/B filter plates, Perkin-Elmer, Downers Grove, USA) microplate using a 96-well plate cell harvester (Filtermate, Perkin-Elmer, USA), and then by washing three times with 300 μl of ice-cold wash buffer (Na2PO4.2H2O 10 mM, NaH2PO4.H2O 10 mM, pH=7.4). Filters were then air-dried, and 40 μl of liquid scintillation cocktail (Microscint-O) was added to each well, and membrane-bound [^35S]GTPγS was measured in a 96-well scintillation plate reader (Top-Count, Perkin-Elmer, USA). […]
For `CCCCn1ccc(N2CCN(c3nc(C)cc(C)n3)CC2)c(C#N)c1=O` [2-005], the “GTPgS - hR2 PAM pEC50” value was 6.2.

Same assay, conditions: in presence of mGluR2 agonist glutamate at predetermined EC25 concentration, averages of duplicate values of 11-concentration response curves, read-out: GTPgS - hR2 PAM pEC50 (converted)
`COc1ccc(C=Cc2ccn(CCC(C)C)c(=O)c2C#N)cc1` [1-266] showed an EC50 of 316 nM. For `CC(C)CCn1ccc(C#Cc2ccccc2)c(C#N)c1=O` [1-267, 3-cyano-1-(3-methylbutyl)-4-(phenylethynyl)pyridine-2(1H)-one], the EC50 was 79.4 nM. Work on `COc1ccc(C#Cc2ccn(CCC(C)C)c(=O)c2C#N)cc1` [1-268] yielded an EC50 of 50.1 nM. In the case of `CC(C)CCn1ccc(C#Cc2cccc(N(C)C)c2)c(C#N)c1=O` [1-269], the EC50 was 158 nM. `N#Cc1c(OCc2ccc(CN3CCOCC3)cc2)ccn(Cc2ccc(OC(F)(F)F)cc2)c1=O` [1-271] showed an EC50 of 158 nM. For `N#Cc1c(OCc2ccccc2)ccn(Cc2ccc(OC(F)(F)F)cc2)c1=O` [1-272], the EC50 was 126 nM. `CCCCn1ccc(Oc2ccc(Br)cc2)c(C#N)c1=O` [1-273] gave an EC50 of 631 nM. Compound `CC(C)CCn1ccc(Oc2ccccc2)c(C#N)c1=O` [1-274] has an EC50 of 1580 nM. `CC(C)CCn1ccc(OCCc2ccccc2)c(C#N)c1=O` [1-276] showed an EC50 of 2510 nM. Compound `CC(C)CCn1ccc(OCc2ccc(C(F)(F)F)cc2)c(C#N)c1=O` [1-277] has an EC50 of 251 nM. For `CC(C)CCn1ccc(OCc2ccc(Br)cc2)c(C#N)c1=O` [1-278], the EC50 was 316 nM. For `CC(C)CCn1ccc(OCCOc2ccccc2)c(C#N)c1=O` [1-280], the EC50 was 1580 nM. Compound `COc1ccc(COc2ccn(CCC(C)C)c(=O)c2C#N)cc1F` [1-283] has an EC50 of 794 nM. Compound `CC(C)CCn1ccc(OCc2ccc(C#N)cc2)c(C#N)c1=O` [1-286] has an EC50 of 3980 nM. `CC(C)CCn1ccc(OCc2ccc(SC(F)(F)F)cc2)c(C#N)c1=O` [1-287] gave an EC50 of 63.1 nM. `CC(C)CCn1ccc(OCc2ccc(OCc3ccccc3)cc2)c(C#N)c1=O` [1-289] gave an EC50 of 79.4 nM. In the case of `CC(C)CCn1ccc(Oc2ccc(N3CCCC3)cc2)c(C#N)c1=O` [1-291], the EC50 was 501 nM. With `N#Cc1c(Nc2ccc(Oc3ccncc3)cc2)ccn(CC2CC2)c1=O` [1-295] the EC50 was 3980 nM. `CCCCn1ccc(N[C@H]2CC[C@H](c3ccccc3)CC2)c(C#N)c1=O` [1-297] gave an EC50 of 200 nM. In the case of `CC(C)CCn1ccc(Nc2ccccc2)c(C#N)c1=O` [1-298], the EC50 was 3980 nM. `CC(C)CCn1ccc(Nc2ccc(N3CCOCC3)cc2)c(C#N)c1=O` [1-300] was tested, and the EC50 was 2000 nM. For `CC(C)CCn1ccc(Nc2ccc(Oc3ccccc3)cc2)c(C#N)c1=O` [1-301], the EC50 was 200 nM. Compound `CC(C)CCn1ccc(Nc2ccc(Oc3ccncc3)cc2)c(C#N)c1=O` [1-302] has an EC50 of 1260 nM. In the case of `CC(C)CCn1ccc(N(C)Cc2ccccc2)c(C#N)c1=O` [1-303], the EC50 was 3160 nM. For `CCCCn1ccc(OCc2ccc(-c3cccc(C)n3)cc2)c(C#N)c1=O` [1-306], the EC50 was 3980 nM. For `CCCCn1ccc(N2CCN(c3ccccn3)CC2)c(C#N)c1=O` [2-004], the EC50 was 2000 nM. In the case of `CCCCn1ccc(N2CCN(c3ncc(C4CC4)cn3)CC2)c(C#N)c1=O` [2-006], the EC50 was 158 nM. `CCCCn1ccc(N2CCN(c3nccc(OC)n3)CC2)c(C#N)c1=O` [2-007] showed an EC50 of 1000 nM. `CCCCn1ccc(N2CCN(c3nccc(NCC)n3)CC2)c(C#N)c1=O` [2-008] gave an EC50 of 1580 nM. For `CCCCn1ccc(N2CCN(c3cnc(N4CCOCC4)nc3)CC2)c(C#N)c1=O` [2-009], the EC50 was 6310 nM. In the case of `CC(C)CCn1ccc(N2CCN(c3ccccc3)CC2)c(C#N)c1=O` [2-011], the EC50 was 501 nM. For `COc1ccc(N2CCN(c3ccn(CCC(C)C)c(=O)c3C#N)CC2)cc1` [2-013], the EC50 was 794 nM. Compound `CC(C)CCn1ccc(N2CCN(Cc3cccc(C(F)(F)F)c3)CC2)c(C#N)c1=O` [2-014] has an EC50 of 794 nM. In the case of `CC(C)CCn1ccc(N2CCN(Cc3ccc(F)c(F)c3)CC2)c(C#N)c1=O` [2-015], the EC50 was 1260 nM. For `CC(C)CCn1ccc(N2CCN(Cc3ccc4c(c3)OCO4)CC2)c(C#N)c1=O` [2-016], the EC50 was 631 nM. Compound `CC(C)CCn1ccc(N2CCN(CCc3ccccc3)CC2)c(C#N)c1=O` [2-017] has an EC50 of 200 nM. In the case of `CC(C)CCn1ccc(N2CCN(C/C=C/c3ccccc3)CC2)c(C#N)c1=O` [2-018], the EC50 was 2510 nM. In the case of `CC(C)CCn1ccc(N2CCN(CCOc3ccc(F)cc3)CC2)c(C#N)c1=O` [2-019], the EC50 was 6310 nM. In the case of `CC(C)CCn1ccc(N2CCN(CCOc3cccc(C(F)(F)F)c3)CC2)c(C#N)c1=O` [2-020], the EC50 was 794 nM. Compound `CC(C)CCn1ccc(N2CCN(Cc3ccccc3)CC2C)c(C#N)c1=O` (centres unmarked) [2-021] has an EC50 of 1260 nM. Compound `CC(C)CCn1ccc(N2CCN(c3ccccn3)CC2)c(C#N)c1=O` [2-024] has an EC50 of 2000 nM. In the case of `Cc1ccc(N2CCN(c3ccn(CCC(C)C)c(=O)c3C#N)CC2)nc1` [2-025], the EC50 was 794 nM. For `CC(C)CCn1ccc(N2CCN(c3ccc(C#N)cn3)CC2)c(C#N)c1=O` [2-027], the EC50 was 6310 nM. With `CC(C)CCn1ccc(N2CCN(c3ncccn3)CC2)c(C#N)c1=O` [2-028] the EC50 was 794 nM. With `CC(C)CCn1ccc(N2CCN(c3ccc(-c4ccccc4)nn3)CC2)c(C#N)c1=O` [2-033] the EC50 was 2000 nM. Compound `Cc1nnc(N2CCN(c3ccn(CCC(C)C)c(=O)c3C#N)CC2)c2ccccc12` [2-034] has an EC50 of 3980 nM. `C[C@@H]1CN(c2ccn(CC3CC3)c(=O)c2C#N)C[C@H](C)N1c1ncccn1` [2-041] was tested, and the EC50 was 3160 nM. Compound `N#Cc1c(N2CCN(Cc3ccccc3)CC2)ccn(Cc2ccc(OC(F)(F)F)cc2)c1=O` [2-042] has an EC50 of 631 nM. `CC1CN(Cc2cc(F)cc(F)c2)CCN1c1ccn(Cc2ccc(OC(F)(F)F)cc2)c(=O)c1C#N` (centres unmarked) [2-045] was tested, and the EC50 was 501 nM. `N#Cc1c(N2CCN(Cc3ccncc3)CC2)ccn(Cc2ccc(OC(F)(F)F)cc2)c1=O` [2-047] was tested, and the EC50 was 5010 nM. Work on `N#Cc1c(N2CCN(Cc3ccccc3)CC2)ccn(Cc2ccc(F)cc2)c1=O` [2-049] yielded an EC50 of 1580 nM. `N#Cc1c(N2CCN(Cc3cccc(F)c3)CC2)ccn(Cc2ccc(F)cc2)c1=O` [2-050] showed an EC50 of 2510 nM. `N#Cc1c(N2CCN(Cc3cc(F)cc(F)c3)CC2)ccn(Cc2ccc(F)cc2)c1=O` [2-052] gave an EC50 of 3980 nM. With `N#Cc1c(N2CCN(Cc3ccccc3)CC2)ccn(CCOc2ccccc2)c1=O` [2-053] the EC50 was 631 nM. `N#Cc1c(N2CCN(Cc3ccccc3)CC2)ccn(CCOCc2ccccc2)c1=O` [2-054] gave an EC50 of 5010 nM. For `N#Cc1c(N2CCN(c3ccccn3)CC2)ccn(Cc2ccc(F)cc2)c1=O` [2-055], the EC50 was 3980 nM. `CCCCn1ccc(OC2CCN(Cc3cccc(C(F)(F)F)c3)CC2)c(C#N)c1=O` [3-002] gave an EC50 of 1260 nM. Work on `CC(C)CCn1ccc(OC2CCN(Cc3cccc(C(F)(F)F)c3)CC2)c(C#N)c1=O` [3-008] yielded an EC50 of 316 nM. For `N#Cc1c(OC2CCN(Cc3cccc(C(F)(F)F)c3)CC2)ccn(CC2CC2)c1=O` [3-012], the EC50 was 1260 nM. Work on `CC(C)CCn1ccc(C2CCN(Cc3cccc(C(F)(F)F)c3)CC2)c(C#N)c1=O` [3-014] yielded an EC50 of 200 nM. `CCCCn1ccc(N2CCC(c3ccccn3)CC2)c(C#N)c1=O` [4-001] gave an EC50 of 2000 nM. Work on `CCCCn1ccc(N2CCC(c3cccnc3)CC2)c(C#N)c1=O` [4-002] yielded an EC50 of 3980 nM. Work on `CCCCn1ccc(N2CCC(Oc3ccccn3)CC2)c(C#N)c1=O` [4-005] yielded an EC50 of 501 nM. `CCCCn1ccc(N2CCC(COc3ccccn3)CC2)c(C#N)c1=O` [4-006] showed an EC50 of 501 nM. In the case of `CCCCn1ccc(N2CCC(COc3cccnc3)CC2)c(C#N)c1=O` [4-007], the EC50 was 1580 nM. For `CCCCn1ccc(N2CCC(CCOc3cccnc3)CC2)c(C#N)c1=O` [4-008], the EC50 was 1580 nM. `CCCCn1ccc(N2CCC(Oc3ccc(C#N)cc3)CC2)c(C#N)c1=O` [4-009] showed an EC50 of 501 nM.
